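All cell lines were grown in 96-well plates and treated with compound for 48 hours. The concentration for 50% growth inhibition is given as GI50.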 Calls of active or inactive are those of the source. No stated cut-off is given here; in the data, active = GI50 up to about 1.1 µM and inactive = higher.
Legend:
Assay in all cases: growth of human tumour cells (NCI), 48 h
M19-MEL = tested on: M19-MEL
RXF 631 = tested on: RXF 631
HOP-92 = tested on: HOP-92
OVCAR-8 = tested on: OVCAR-8
ACHN = tested on: ACHN
A498 = tested on: A498
HCT-116 = tested on: HCT-116
DMS-114 = tested on: DMS-114
SF-295 = tested on: SF-295
SR = tested on: SR
SK-OV-3 = tested on: SK-OV-3
A549 = tested on: A549
M14 = tested on: M14
TK-10 = tested on: TK-10
HL-60 = tested on: HL-60
IGROV-1 = tested on: IGROV-1
U-251 = tested on: U-251
KM12 = tested on: KM12
OVCAR-5 = tested on: OVCAR-5
CCRF-CEM = tested on: CCRF-CEM
RXF 393 = tested on: RXF 393
MOLT-4 = tested on: MOLT-4
NCI-H522 = tested on: NCI-H522
NCI-H460 = tested on: NCI-H460
NCI-H23 = tested on: NCI-H23
SK-MEL-28 = tested on: SK-MEL-28
SNB-78 = tested on: SNB-78
DMS-273 = tested on: DMS-273
UACC-62 = tested on: UACC-62
HOP-62 = tested on: HOP-62
NCI-H226 = tested on: NCI-H226
EKVX = tested on: EKVX
KM-20L2 = tested on: KM-20L2
HT-29 = tested on: HT-29
UACC-257 = tested on: UACC-257
COLO 205 = tested on: COLO 205
DLD-1 = tested on: DLD-1
SN12C = tested on: SN12C
UO-31 = tested on: UO-31
SF-539 = tested on: SF-539
SF-268 = tested on: SF-268
HCC 2998 = tested on: HCC 2998
SK-MEL-2 = tested on: SK-MEL-2
SK-MEL-5 = tested on: SK-MEL-5
LXFL 529 = tested on: LXFL 529
CAKI-1 = tested on: CAKI-1
K562 = tested on: K562
LOX IMVI = tested on: LOX IMVI
OVCAR-4 = tested on: OVCAR-4
Malme-3M = tested on: Malme-3M
HCT-15 = tested on: HCT-15
SNB-19 = tested on: SNB-19
786-0 = tested on: 786-0
SW-620 = tested on: SW-620

NCC(=O)NC(CCCC(NC(=O)CN)P(=O)(O)O)P(=O)(O)O (stereo not drawn)
GI50 (M19-MEL): > 100 µM (inactive)
GI50 (RXF 631): > 100 µM (inactive)
GI50 (HOP-92): > 100 µM (inactive)
GI50 (OVCAR-8): > 100 µM (inactive)
GI50 (ACHN): > 100 µM (inactive)
GI50 (A498): > 100 µM (inactive)
GI50 (HCT-116): > 100 µM (inactive)
GI50 (DMS-114): > 100 µM (inactive)
GI50 (SF-295): > 100 µM (inactive)
GI50 (SR): > 100 µM (inactive)
GI50 (SK-OV-3): > 100 µM (inactive)
GI50 (A549): > 100 µM (inactive)
GI50 (M14): > 100 µM (inactive)
GI50 (TK-10): > 100 µM (inactive)
GI50 (HL-60): > 100 µM (inactive)
GI50 (IGROV-1): > 100 µM (inactive)
GI50 (U-251): > 100 µM (inactive)
GI50 (KM12): > 100 µM (inactive)
GI50 (OVCAR-5): > 100 µM (inactive)
GI50 (CCRF-CEM): > 100 µM (inactive)
GI50 (RXF 393): > 100 µM (inactive)
GI50 (MOLT-4): > 100 µM (inactive)
GI50 (NCI-H522): > 100 µM (inactive)
GI50 (NCI-H460): > 100 µM (inactive)
GI50 (NCI-H23): > 100 µM (inactive)
GI50 (SK-MEL-28): > 100 µM (inactive)
GI50 (SNB-78): > 100 µM (inactive)
GI50 (DMS-273): > 100 µM (inactive)
GI50 (UACC-62): > 100 µM (inactive)
GI50 (HOP-62): > 100 µM (inactive)
GI50 (NCI-H226): 26 µM (inactive)
GI50 (EKVX): > 100 µM (inactive)
GI50 (KM-20L2): > 100 µM (inactive)
GI50 (HT-29): > 100 µM (inactive)
GI50 (UACC-257): > 100 µM (inactive)

N=C(N)NNC(=O)CCCCCCCC(=O)NNC(=N)N
GI50 (M19-MEL): > 100 µM (inactive)
GI50 (RXF 631): > 100 µM (inactive)
GI50 (COLO 205): 18.3 µM (inactive)
GI50 (DLD-1): > 100 µM (inactive)
GI50 (ACHN): > 100 µM (inactive)
GI50 (A498): > 100 µM (inactive)
GI50 (HCT-116): > 100 µM (inactive)
GI50 (SN12C): > 100 µM (inactive)
GI50 (UO-31): > 100 µM (inactive)
GI50 (SF-539): > 100 µM (inactive)
GI50 (SF-268): > 100 µM (inactive)
GI50 (DMS-114): 62.7 µM (inactive)
GI50 (SF-295): > 100 µM (inactive)
GI50 (SK-OV-3): > 100 µM (inactive)
GI50 (HCC 2998): > 100 µM (inactive)
GI50 (A549): > 100 µM (inactive)
GI50 (SK-MEL-2): > 100 µM (inactive)
GI50 (SK-MEL-5): > 100 µM (inactive)
GI50 (LXFL 529): > 100 µM (inactive)
GI50 (M14): > 100 µM (inactive)
GI50 (TK-10): > 100 µM (inactive)
GI50 (HL-60): > 100 µM (inactive)
GI50 (IGROV-1): > 100 µM (inactive)
GI50 (U-251): > 100 µM (inactive)
GI50 (KM12): > 100 µM (inactive)
GI50 (OVCAR-5): > 100 µM (inactive)
GI50 (CCRF-CEM): > 100 µM (inactive)
GI50 (RXF 393): > 100 µM (inactive)
GI50 (CAKI-1): > 100 µM (inactive)
GI50 (NCI-H460): > 100 µM (inactive)
GI50 (K562): > 100 µM (inactive)
GI50 (NCI-H23): > 100 µM (inactive)
GI50 (LOX IMVI): > 100 µM (inactive)
GI50 (OVCAR-4): 33.9 µM (inactive)
GI50 (SK-MEL-28): > 100 µM (inactive)
GI50 (SNB-78): > 100 µM (inactive)
GI50 (DMS-273): > 100 µM (inactive)
GI50 (Malme-3M): > 100 µM (inactive)
GI50 (UACC-62): > 100 µM (inactive)
GI50 (HOP-62): > 100 µM (inactive)
GI50 (EKVX): > 100 µM (inactive)
GI50 (KM-20L2): > 100 µM (inactive)
GI50 (HT-29): > 100 µM (inactive)
GI50 (HCT-15): 17.9 µM
GI50 (SNB-19): > 100 µM (inactive)
GI50 (786-0): > 100 µM (inactive)
GI50 (UACC-257): > 100 µM (inactive)
GI50 (SW-620): 10.4 µM (inactive)

Reference: ChEMBL document CHEMBL1201862, “PubChem BioAssay data set” (2004)
